Source: patent US20240358693A1, “METHODS OF TREATING PAIN” (Aisa Pharma, Inc., priority 2023, published 2024)

Tested on: participants with SSc-RP
Assay: Average duration of weekly RP attacks (minutes)
Assay type: in vivo, human
Description: The absolute change in average duration of weekly RP attacks from baseline to the end of each dosing period was and will be a secondary outcome variable. The sponsor-developed participant-informed diary was and will be used to record data. Average duration of weekly RP attacks is defined as the total duration of RP attacks divided by total number of RP attacks within the last 7 days of each dosing period. Total duration of RP attacks during the last 7 days of screening period divided by the total number of RP attacks will be used as baseline for the analysis of all periods. The variable will be calculated similar to frequency data as before.

[1] = Cilnidipine 10 mg, n=1, Excluding Outliers, ITT Part A
[2] = Cilnidipine 10 mg, n=1, ITT Part A
[3] = Cilnidipine 10 mg, Baseline RCS subgroup 1 (unnamed), ITT Part A
[4] = Cilnidipine 10 mg, Excluding Outliers, Baseline RCS subgroup 1 (unnamed), ITT Part A
[5] = Cilnidipine 10 mg, Excluding Outliers, ITT Population - Part A
[6] = Cilnidipine 10 mg, Excluding Outliers, by Baseline RCS, subgroup 1, ITT Population - Part A
[7] = Cilnidipine 10 mg, by Baseline RCS, subgroup 1, ITT Population - Part A
[8] = Cilnidipine 20 mg, n=2, Excluding Outliers, ITT Part A
[9] = Cilnidipine 20 mg, n=2, ITT Part A
[10] = Cilnidipine 20 mg, Baseline RCS subgroup 1 (unnamed), ITT Part A
[11] = Cilnidipine 20 mg, Excluding Outliers, Baseline RCS subgroup 1 (unnamed), ITT Part A

COCCOC(=O)C1=C(C)NC(C)=C(C(=O)OC/C=C/c2ccccc2)C1c1cccc([N+](=O)[O-])c1 (stereo not shown) [Cilnidipine, cilnidipine]
Average Duration of Weekly Symptomatic RP Attacks, Change from Baseline, Mean [1]: -16.74 min
Average Duration of Weekly Symptomatic RP Attacks, Change from Baseline, Median [1]: -16.74 min
Average Duration of Weekly Symptomatic RP Attacks, Mean [1]: 31.64 min
Average Duration of Weekly Symptomatic RP Attacks, Median [1]: 31.64 min
Average Duration of Weekly Symptomatic RP Attacks, Percent Change from Baseline, Mean [1]: −34.60%
Average Duration of Weekly Symptomatic RP Attacks, Percent Change from Baseline, Median [1]: −34.60%
Average Duration of Weekly Symptomatic RP Attacks, Change from Baseline, Mean [2]: -16.74 min
Average Duration of Weekly Symptomatic RP Attacks, Change from Baseline, Median [2]: -16.74 min
Average Duration of Weekly Symptomatic RP Attacks, Mean [2]: 31.64 min
Average Duration of Weekly Symptomatic RP Attacks, Median [2]: 31.64 min
Average Duration of Weekly Symptomatic RP Attacks, Percent Change from Baseline, Mean [2]: −34.60%
Average Duration of Weekly Symptomatic RP Attacks, Percent Change from Baseline, Median [2]: −34.60%
Average Duration of Weekly Symptomatic RP Attacks, Change from Baseline, Mean [3]: -16.74 min
Average Duration of Weekly Symptomatic RP Attacks, Change from Baseline, Median [3]: -16.74 min
Average Duration of Weekly Symptomatic RP Attacks, Mean [3]: 31.64 min
Average Duration of Weekly Symptomatic RP Attacks, Median [3]: 31.64 min
Average Duration of Weekly Symptomatic RP Attacks, Percent Change from Baseline, Mean [3]: −34.60%
Average Duration of Weekly Symptomatic RP Attacks, Percent Change from Baseline, Median [3]: −34.60%
Average Duration of Weekly Symptomatic RP Attacks, Change from Baseline, Mean [4]: -16.74 min
Average Duration of Weekly Symptomatic RP Attacks, Change from Baseline, Median [4]: -16.74 min
Average Duration of Weekly Symptomatic RP Attacks, Mean [4]: 31.64 min
Average Duration of Weekly Symptomatic RP Attacks, Median [4]: 31.64 min
Average Duration of Weekly Symptomatic RP Attacks, Percent Change from Baseline, Mean [4]: −34.60%
Average Duration of Weekly Symptomatic RP Attacks, Percent Change from Baseline, Median [4]: −34.60%
Average Duration of Weekly RP Attacks (All Attacks) Change from Baseline, Mean [5]: -8.48 min
Average Duration of Weekly RP Attacks (All Attacks) Change from Baseline, Median [5]: -8.48 min
Average Duration of Weekly RP Attacks (All Attacks) Percent Change from Baseline, Mean [5]: −21.20%
Average Duration of Weekly RP Attacks (All Attacks) Percent Change from Baseline, Median [5]: −21.20%
Average Duration of Weekly RP Attacks (All Attacks), Mean [5]: 31.52 min
Average Duration of Weekly RP Attacks (All Attacks), Median [5]: 31.52 min
Average Duration of Weekly RP Attacks (All Attacks) Change from Baseline, Mean [6]: -8.48 min
Average Duration of Weekly RP Attacks (All Attacks) Change from Baseline, Median [6]: -8.48 min
Average Duration of Weekly RP Attacks (All Attacks) Percent Change from Baseline, Mean [6]: −21.20%
Average Duration of Weekly RP Attacks (All Attacks) Percent Change from Baseline, Median [6]: −21.20%
Average Duration of Weekly RP Attacks (All Attacks), Mean [6]: 31.52 min
Average Duration of Weekly RP Attacks (All Attacks), Median [6]: 31.52 min
Average Duration of Weekly RP Attacks (All Attacks) Change from Baseline, Mean (Cilnidipine 10 mg, ITT Part A): -8.48 min
Average Duration of Weekly RP Attacks (All Attacks) Change from Baseline, Median (Cilnidipine 10 mg, ITT Part A): -8.48 min
Average Duration of Weekly RP Attacks (All Attacks) Percent Change from Baseline, Mean (Cilnidipine 10 mg, ITT Part A): −21.20%
Average Duration of Weekly RP Attacks (All Attacks) Percent Change from Baseline, Median (Cilnidipine 10 mg, ITT Part A): −21.20%
Average Duration of Weekly RP Attacks (All Attacks), Mean (Cilnidipine 10 mg, ITT Part A): 31.52 min
Average Duration of Weekly RP Attacks (All Attacks), Median (Cilnidipine 10 mg, ITT Part A): 31.52 min
Average Duration of Weekly RP Attacks (All Attacks) Change from Baseline, Mean [7]: -8.48 min
Average Duration of Weekly RP Attacks (All Attacks) Change from Baseline, Median [7]: -8.48 min
Average Duration of Weekly RP Attacks (All Attacks) Percent Change from Baseline, Mean [7]: −21.20%
Average Duration of Weekly RP Attacks (All Attacks) Percent Change from Baseline, Median [7]: −21.20%
Average Duration of Weekly RP Attacks (All Attacks), Mean [7]: 31.52 min
Average Duration of Weekly RP Attacks (All Attacks), Median [7]: 31.52 min
Average Duration of Weekly Symptomatic RP Attacks, Change from Baseline, Mean [8]: -3.13 min
Average Duration of Weekly Symptomatic RP Attacks, Change from Baseline, Median [8]: -3.13 min
Average Duration of Weekly Symptomatic RP Attacks, Mean [8]: 16.73 min
Average Duration of Weekly Symptomatic RP Attacks, Median [8]: 16.73 min
Average Duration of Weekly Symptomatic RP Attacks, Percent Change from Baseline, Mean [8]: −31.05%
Average Duration of Weekly Symptomatic RP Attacks, Percent Change from Baseline, Median [8]: −31.05%
Average Duration of Weekly Symptomatic RP Attacks, Change from Baseline, Mean [9]: -3.13 min
Average Duration of Weekly Symptomatic RP Attacks, Change from Baseline, Median [9]: -3.13 min
Average Duration of Weekly Symptomatic RP Attacks, Mean [9]: 16.73 min
Average Duration of Weekly Symptomatic RP Attacks, Median [9]: 16.73 min
Average Duration of Weekly Symptomatic RP Attacks, Percent Change from Baseline, Mean [9]: −31.05%
Average Duration of Weekly Symptomatic RP Attacks, Percent Change from Baseline, Median [9]: −31.05%
Average Duration of Weekly Symptomatic RP Attacks, Change from Baseline, Mean [10]: -3.13 min
Average Duration of Weekly Symptomatic RP Attacks, Change from Baseline, Median [10]: -3.13 min
Average Duration of Weekly Symptomatic RP Attacks, Mean [10]: 16.73 min
Average Duration of Weekly Symptomatic RP Attacks, Median [10]: 16.73 min
Average Duration of Weekly Symptomatic RP Attacks, Percent Change from Baseline, Mean [10]: −31.05%
Average Duration of Weekly Symptomatic RP Attacks, Percent Change from Baseline, Median [10]: −31.05%
Average Duration of Weekly Symptomatic RP Attacks, Change from Baseline, Mean [11]: -3.13 min
Average Duration of Weekly Symptomatic RP Attacks, Change from Baseline, Median [11]: -3.13 min
Average Duration of Weekly Symptomatic RP Attacks, Mean [11]: 16.73 min
Average Duration of Weekly Symptomatic RP Attacks, Median [11]: 16.73 min
Average Duration of Weekly Symptomatic RP Attacks, Percent Change from Baseline, Mean [11]: −31.05%
Average Duration of Weekly Symptomatic RP Attacks, Percent Change from Baseline, Median [11]: −31.05%
Average Duration of Weekly RP Attacks (All Attacks) Change from Baseline, Mean (Cilnidipine 20 mg, Excluding Outliers, ITT Population - Part A): -1.09 min
